Assay results as given in patent publication US5968791A, “Plant lysophosphatidic acid acyltransferases” (Calgene, Inc., priority 1995, dated 1999).

Columns and labels:
[1] = biological target: T1, coconut medium-chain LPAAT (Cocos nucifera, UniProt Q42670); test: Assay of solubilized coconut LPAAT (S3 preparation) with phospholipid activation; format: biochemical; details: for effect on LPAAT activity of the coconut S3 preparation: added at 1 mM; for reduction of LPAAT activity of the coconut S3 preparation: added at 10 mM
T1 construct: The frozen coconut P2 preparation is thawed and diluted in a volume of P2 Buffer; from tissue; host or cells: immature coconut endosperm, solubilized S3 supernatant of P2 membranes
T1 sequence (Q42670 1-308): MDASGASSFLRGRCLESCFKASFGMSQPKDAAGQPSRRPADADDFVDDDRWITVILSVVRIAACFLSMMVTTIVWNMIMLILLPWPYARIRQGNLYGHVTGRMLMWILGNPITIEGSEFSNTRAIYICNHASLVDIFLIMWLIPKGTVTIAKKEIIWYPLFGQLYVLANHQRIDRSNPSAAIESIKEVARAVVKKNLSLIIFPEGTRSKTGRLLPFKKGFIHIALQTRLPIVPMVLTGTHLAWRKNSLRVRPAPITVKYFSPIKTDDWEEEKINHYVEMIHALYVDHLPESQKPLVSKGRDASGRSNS
Procedure: After solubilization of LPAAT protein from plant membranes as described below, modification of the above assay conditions is required in order to detect maximum LPAAT activity. This is especially important after the solubilized LPAAT has been chromatographed on at least one column. The important modification to the assay is the addition, at the start of the assay procedure, of 1 μl of a concentrated phospholipid (PL) solution to 20 μl of the LPAAT-containing sample in a glass vial. The high concentrations of CHAPS (at least 1% w/v) and NaCl (typically 0.5M or greater) in the solubilized LPAAT preparation aid in dispersal of the phospholipids. The phospholipid solution is obtained by sonicating crude soybean phospholipids (L-phosphatidylcholine from soybean, "Type IVs" obtained from Sigma Chemical Company, St. Louis) at 50 mg/ml in 0.5% (w/v) CHAPS (3-[(3-cholamidopropyl) -dimethylammonio]-1-propane-sulfonate) until a uniform suspension is obtained.
The remaining assay ingredients (as described above), with the exception of the acyl-CoA substrate, are then added as 219 μl of a mixture. […] Radiolabeled acyl-CoA (10 μl, or an appropriately adjusted volume as indicated above) is added to start the LPAAT-catalyzed reaction and the rest of the assay procedure is completed as described above.
All steps are carried out at 0-4° C. The frozen coconut P2 preparation is thawed and diluted in a volume of P2 Buffer to achieve a protein concentration of 0.94 mg/ml P2 protein. Protein concentration is determined by Coomassie dye staining relative to a bovine serum albumin standard. The P2 membrane suspension is then diluted with an equal volume of Solubilization Buffer (50 mM HEPES-NaOH, pH 7.5, […], 20% (w/v) glycerol, 4.5% (w/v) CHAPS, 100 μM Pefabloc, 1 μM leupeptin, 1 μM Pepstatin A, and 5 mM β-ME), resulting in final concentrations of 1M NaCl, 2.25% (w/v) detergent, and 0.47 mg/ml protein. These component concentrations, and the resulting detergent/protein ratio of 48/1 (w/w), are important for optimal solubilization. The preparation is then incubated on ice for 30 minutes with occasional, gentle stirring, followed by centrifugation at 252,000×g for 2 hours. The resulting supernatant fraction (S3) is filtered through buffer-wetted Miracloth, and may then be stored frozen (-70) with only slight loss of activity. Optimally, it is applied to chromatography columns without an intervening freeze-thaw cycle.
Assay of the coconut medium-chain LPAAT activity after solubilization (S3 preparation) and reactivation with PLs, using different acyl-CoA substrates, provides the following results (Table 3). In all these assays the acceptor substrate is 12:0-LPA.

bay LPAAT = test: LPAAT activity assay, California bay P2 membrane preparation; format: biochemical, Umbellularia californica; details: for detergent concentration tolerated without complete loss of activity: 1-hour exposure, diluted prior to assay; for detergent concentration in the assay that inhibits long-chain LPAAT activity completely: 18:1-CoA and 18:1-LPA, concentrations w/v
Procedure: To assay for LPAAT activity, the sample is incubated with lysophosphatidic acid (LPA) and acyl-coenzyme A (acyl-CoA) substrates in buffered solution. The acyl substituents of the two substrates are chosen to correspond with the specificity of the enzyme being measured. […] The acyl group of one substrate is radioactively labeled in order to detect the product formed. In the examples which follow the acyl substituent of the acyl-CoA substrate is radiolabeled with ^14 C in the carboxyl group. LPAAT activity results in transfer of this acyl group from the acyl-CoA "donor" substrate to the LPA "acceptor" substrate, converting the latter into the product, phosphatidic acid (PA). LPAAT activity is measured as the amount of radioactive product formed in a given assay time. The PA product is radioactive as a result of the transferred radiolabeled acyl group at the central carbon atom of the molecule, and the quantity of PA formed may be determined by measuring radioactivity of the PA fraction. For this measurement, the PA is first separated from the acyl-CoA substrate by solvent partitioning, or by thin-layer chromatography (TLC).

coconut LPAAT = biological target: T2, coconut LPAAT (Cocos nucifera, UniProt Q42670); test: LPAAT activity assay, coconut P2 membrane preparation; format: biochemical; design: white endosperm tissue lining the inside of the endocarp can be dissected and collected; from tissue; host or cells: immature coconut endosperm, P2 membrane fraction; details: for effect on medium-chain LPAAT activity: coconut P2
T2 sequence (Q42670 1-308): T1 sequence (Q42670 1-308)
Procedure: (§1) To assay for LPAAT activity, the sample is incubated with lysophosphatidic acid (LPA) and acyl-coenzyme A (acyl-CoA) substrates in buffered solution. The acyl substituents of the two substrates are chosen to correspond with the specificity of the enzyme being measured. For example, to measure activity of an LPAAT having preference for medium-chain substrates, lauroyl-LPA (lauroyl-lysophosphatidic acid) and lauroyl-CoA may be used, to measure activity of an LPAAT preferring longer-chain acyl groups, oleoyl-LPA and oleoyl-CoA may be used, to measure activity of an LPAAT preferring very-long chain substrate, erucyl-LPA and erucyl-CoA may be used, and so on, depending upon the type of LPAAT to be tested. The acyl group of one substrate is radioactively labeled in order to detect the product formed. In the examples which follow the acyl substituent of the acyl-CoA substrate is radiolabeled with ^14 C in the carboxyl group. LPAAT activity results in transfer of this acyl group from the acyl-CoA "donor" substrate to the LPA "acceptor" substrate, converting the latter into the product, phosphatidic acid (PA). LPAAT activity is measured as the amount of radioactive product formed in a given assay time. The PA product is radioactive as a result of the transferred radiolabeled acyl group at the central carbon atom of the molecule, and the quantity of PA formed may be determined by measuring radioactivity of the PA fraction. For this measurement, the PA is first separated from the acyl-CoA substrate by solvent partitioning, or by thin-layer chromatography (TLC).
(§2) 20 μl of the sample to be assayed for LPAAT activity is mixed with 217.5 μl of an assay ingredient mixture in a 4-ml, screw-cap vial. […] The incubation takes place in a water bath at 30° C., for 20-30 minutes.
(§3) To stop the assay, 0.25 ml of 1M KCl in 0.2M H3 PO4 is added to the vial. At this point, 40 μl BSA (bovine serum albumin, fraction V) at 1 mg/ml are added, followed by 0.75 ml of a solution of 67 μg/ml unlabeled PA (acting as a "carrier" to facilitate partitioning) in chloroform/methanol (2:1, v/v). The chain lengths of the PA acyl groups are chosen to correspond to those used in the assay substrates. Upon thorough mixing of these components the radiolabeled PA product of the LPAAT reaction partitions into the organic phase and away from the unreacted acyl-CoA and LPA. The vial is centrifuged briefly at low speed to facilitate the separation of organic (lower) and aqueous (upper) phases. The aqueous phase is then removed and discarded. The total radioactivity extracted into the organic phase is determined by liquid scintillation counting; a 100 μl sample of the organic phase is transferred to a 20 ml scintillation vial and allowed to dry, and scintillation fluid (3-5 ml) is added to the vial. The radioactivity of the sample, after subtraction of the "minus-enzyme" or "minus-LPA" radioactivities, is taken as an approximate indication of the amount of PA formed in the LPAAT-catalyzed reaction and therefore of LPAAT activity.
A more accurate estimation of the LPAAT activity may be obtained by separating the PA product from these contaminants by TLC. The remaining organic phase is applied to a silica TLC plate. Ascending chromatography is carried out for 50 minutes, using the solvent mixture chloroform/pyridine/88% formic acid (50:30:7, v/v). After the plate has dried, the distribution of radioactivity is visualized and quantitated using an AMBIS radioanalytic imaging system (AMBIS Systems Inc., San Diego, Calif.). From prior application of standard lipid components the Rf of the PA is known. The radioactivity associated with the PA spot is expressed as a percentage of the total radioactivity of the assay sample loaded on the plate. This ratio provides an indication of the proportion of the scintillation counts which represent the PA product, and may be used to correct the counts to obtain the total PA radioactivity formed in the assay. […]

Rapeseed LPAAT = test: LPAAT activity assay, rapeseed P2 membrane preparation; format: biochemical, Brassica napus; details: acyl-CoA donor varied, acceptor 12:0-LPA
Procedure: as §1, §2, §3
A more accurate estimation of the LPAAT activity may be obtained by separating the PA product from these contaminants by TLC. The remaining organic phase is applied to a silica TLC plate. […] After the plate has dried, the distribution of radioactivity is visualized and quantitated using an AMBIS radioanalytic imaging system (AMBIS Systems Inc., San Diego, Calif.). From prior application of standard lipid components the Rf of the PA is known. The radioactivity associated with the PA spot is expressed as a percentage of the total radioactivity of the assay sample loaded on the plate. This ratio provides an indication of the proportion of the scintillation counts which represent the PA product, and may be used to correct the counts to obtain the total PA radioactivity formed in the assay.
A P2 membrane homogenate from immature embryos of developing rapeseed (Brassica napus) seeds is prepared essentially as described above, except as noted below.

[2] = P2 membrane preparation, acyl-CoA donor varied, acceptor 12:0-LPA

Molecule: [Mn+2] [Mn^2+]
- effect on LPAAT activity of the coconut S3 preparation [1]: without significant effect
- reduction of LPAAT activity of the coconut S3 preparation [1]: ≥ 50%

Molecule: CCCCCCCCO[C@@H]1O[C@H](CO)[C@@H](O)[C@H](O)[C@H]1O [octyl glucoside]
- detergent concentration tolerated without complete loss of activity (bay LPAAT; bay P2 preparation): 0.5%
- detergent concentration in the assay that inhibits long-chain LPAAT activity completely (bay LPAAT; bay P2 preparation): 0.1%

Molecule: C[C@H](CCC(=O)O)[C@H]1CC[C@H]2[C@@H]3CC[C@@H]4C[C@H](O)CC[C@]4(C)[C@H]3C[C@H](O)[C@]12C [sodium deoxycholate]
- detergent concentration in the assay that inhibits long-chain LPAAT activity completely (bay LPAAT; bay P2 preparation): 0.1%

Molecule: CC(C)(COP(=O)(O)OP(=O)(O)OC[C@H]1O[C@@H](n2cnc3c(N)ncnc32)[C@H](O)[C@@H]1OP(=O)(O)O)[C@@H](O)C(=O)NCCC(=O)NCCS [CoA]
- effect on medium-chain LPAAT activity (coconut LPAAT; 0.1 mM in the assay system): unaffected

Molecule: Nc1ncnc2c1ncn2[C@@H]1O[C@H](COP(=O)(O)OP(=O)(O)OP(=O)(O)O)[C@@H](O)[C@H]1O [adenosine-5'-triphosphate]
- effect on medium-chain LPAAT activity (coconut LPAAT; 2 mM in the assay system): unaffected

Molecule: Tween 20
- detergent concentration tolerated without complete loss of activity (bay LPAAT; bay P2 preparation): 2.5%
- detergent concentration in the assay that inhibits long-chain LPAAT activity completely (bay LPAAT; bay P2 preparation): 1%

Molecule: [Mg+2] [Mg^2+]
- effect on LPAAT activity of the coconut S3 preparation [1]: without significant effect
- reduction of LPAAT activity of the coconut S3 preparation [1]: ≥ 50%

Molecule: C[C@H](CCC(=O)NCCC[N+](C)(C)CCCS(=O)(=O)[O-])[C@H]1CC[C@H]2[C@@H]3[C@H](O)C[C@@H]4C[C@H](O)CC[C@]4(C)[C@H]3C[C@H](O)[C@]12C [CHAPS, 3-[(3-cholamidopropyl) -dimethylammonio]-1-propane-sulfonate]
- concentration above which inhibitory in the medium-chain LPAAT assay (coconut LPAAT; coconut medium-chain LPAAT assay): above 0.1 % (w/v)
- inhibition at 5000 µg/mL (coconut LPAAT; read-out: LPAAT activity loss): 50%

Molecule: CCCCCC(=O)SCCNC(=O)CCNC(=O)[C@H](O)C(C)(C)COP(=O)(O)OP(=O)(O)OC[C@H]1O[C@@H](n2cnc3c(N)ncnc32)[C@H](O)[C@@H]1OP(=O)(O)O [6:0]
- LPAAT Activity, solubilized coconut LPAAT ([1]; radioactivity of PA product resolved on TLC, after 30 min assay, S3 reactivated with PLs, acceptor 12:0-LPA): 1 cpm
- LPAAT Activity from Bay (bay LPAAT; [2]): 1 pmol PA formed/30 min assay
- LPAAT Activity from Rapeseed (Rapeseed LPAAT): 0 pmol PA formed/30 min assay
- LPAAT Activity from Coconut (coconut LPAAT; [2]): 3 pmol PA formed/30 min assay

Molecule: lysophosphatidylcholine
- effect on medium-chain LPAAT activity (coconut LPAAT; 60 μM in the assay system): unaffected

Molecule: CCCCCCCCCCCCCC[N+](C)(C)CCCS(=O)(=O)[O-] [Zwittergent 3-14]
- detergent concentration in the assay that inhibits long-chain LPAAT activity completely (bay LPAAT; bay P2 preparation): 0.005%

Molecule: CCCCCCCCCCCCOS(=O)(=O)[O-].[Na+] [SDS, sodium dodecyl sulfate]
- detergent concentration in the assay that inhibits long-chain LPAAT activity completely (bay LPAAT; bay P2 preparation): 0.002%

Molecule: [Ca+2] [Ca^2+]
- effect on LPAAT activity of the coconut S3 preparation [1]: without significant effect
- reduction of LPAAT activity of the coconut S3 preparation [1]: ≥ 50%

Molecule: Triton X100
- detergent concentration tolerated without complete loss of activity (bay LPAAT; bay P2 preparation): 0.1%
- detergent concentration in the assay that inhibits long-chain LPAAT activity completely (bay LPAAT; bay P2 preparation): 0.03%

B1: 18:1-ACP: 18:1 acyl-ACP tested as LPAAT donor substrate (conjugate, UniProt P0A6A8 2-78, looked up)
Acyl carrier protein: STIEERVKKIIGEQLGVKQEEVTNNASFVEDLGADSLDTVELVMALEEEFDTEIPDEEAEKITTVQAAIDYINGHQA
modifications: 18:1 acyl thioester
notes: 18:1 acyl-ACP tested as LPAAT donor substrate
- utilization as LPAAT donor substrate instead of 18:1-CoA (bay LPAAT; bay P2 preparation): will not significantly utilize
